Source: patent US10167262B2, “Herbicidal substituted 3-arylpyrazoles” (FMC CORPORATION, priority 2014, dated 2019)

Tested on: barnyardgrass (Echinochloa crus-galli)
Test: Test A pre-/postemergence greenhouse herbicide test, visual injury rating 0-100
Type: in vivo
Details: Postemergence, 125 g ai/ha
From the text: (§1) Seeds of plant species selected from barnyardgrass (Echinochloa crus-galli), large (Lg) crabgrass (Digitaria sanguinalis), giant foxtail (Setaria faberii), morningglory (Ipomoea spp.), pigweed (Amaranthus retroflexus), velvetleaf (Abutilon theophrasti), wheat (Triticum aestivum), and corn (Zea mays) were planted into a blend of loam soil and sand and treated preemergence with a directed soil spray using test chemicals formulated in a non-phytotoxic solvent mixture which included a surfactant. At the same time these species were also treated with postemergence applications of test chemicals formulated in the same manner. Plants ranged in height from 2 to 10 cm and were in the one- to two-leaf stage for the postemergence treatment. Treated plants and untreated controls were maintained in a greenhouse for approximately 10 days, after which time all treated plants were compared to untreated controls and visually evaluated for injury. Plant response ratings, summarized in Table A, are based on a 0 to 100 scale where 0 is no effect and 100 is complete control. A dash (-) response means no test result.

Which “Plant response rating (0 to 100 scale), Barnyardgrass” value does the source give for `CCn1cc(C(=NNc2ccccc2)c2ccccc2)c(-c2cc(Cl)cc(Cl)c2)n1` [Compound 36] here?
The value was 0.

Same assay, conditions: Postemergence, 500 g ai/ha

`CCn1cc(C(=NNc2ccccc2)c2ccccc2)c(-c2cc(Cl)cc(Cl)c2)n1` [Compound 36] was tested. Which “Plant response rating (0 to 100 scale), Barnyardgrass” value did it give?
Its value is 0.

Same assay, conditions: Preemergence, 125 g ai/ha

For `CCn1cc(C(=NNc2ccccc2)c2ccccc2)c(-c2cc(Cl)cc(Cl)c2)n1` [Compound 36], which “Barnyardgrass plant response rating (0 = no effect, 100 = complete control)” value is on record?
Its value is 0.

Same assay, conditions: Preemergence, 500 g ai/ha

Which “Plant response rating (0 to 100 scale), Barnyardgrass” value does the source give for `CCn1cc(C(=NNc2ccccc2)c2ccccc2)c(-c2cc(Cl)cc(Cl)c2)n1` [Compound 36] here?
Its value is 0.

Tested on: corn (Zea mays)
Test: as above
Type: in vivo
Details: Postemergence, 125 g ai/ha
From the text: as §1

`CCn1cc(C(=NNc2ccccc2)c2ccccc2)c(-c2cc(Cl)cc(Cl)c2)n1` [Compound 36] was tested. Which “Plant response rating (0 to 100 scale), Corn” value did it give?
The value was 0.

Same assay, conditions: Postemergence, 500 g ai/ha

How did the “Plant response rating (0 to 100 scale), Corn” value turn out when `CCn1cc(C(=NNc2ccccc2)c2ccccc2)c(-c2cc(Cl)cc(Cl)c2)n1` [Compound 36] was run?
The value was 0.

Same assay, conditions: Preemergence, 125 g ai/ha

For `CCn1cc(C(=NNc2ccccc2)c2ccccc2)c(-c2cc(Cl)cc(Cl)c2)n1` [Compound 36], which “Corn plant response rating (0 = no effect, 100 = complete control)” value is on record?
Its value is 0.

Same assay, conditions: Preemergence, 500 g ai/ha

For `CCn1cc(C(=NNc2ccccc2)c2ccccc2)c(-c2cc(Cl)cc(Cl)c2)n1` [Compound 36], which “Plant response rating (0 to 100 scale), Corn” value is on record?
Its value is 0.

Tested on: giant foxtail (Setaria faberii)
Test: as above
Type: in vivo
Details: Postemergence, 125 g ai/ha
From the text: as §1

For `CCn1cc(C(=NNc2ccccc2)c2ccccc2)c(-c2cc(Cl)cc(Cl)c2)n1` [Compound 36], which “Plant response rating (0 to 100 scale), Foxtail, Giant” value is on record?
The value was 0.

Same assay, conditions: Postemergence, 500 g ai/ha

`CCn1cc(C(=NNc2ccccc2)c2ccccc2)c(-c2cc(Cl)cc(Cl)c2)n1` [Compound 36] was tested. Which “Plant response rating (0 to 100 scale), Foxtail, Giant” value did it give?
The value was 0.

Same assay, conditions: Preemergence, 125 g ai/ha

`CCn1cc(C(=NNc2ccccc2)c2ccccc2)c(-c2cc(Cl)cc(Cl)c2)n1` [Compound 36] was tested. Which “Foxtail, Giant plant response rating (0 = no effect, 100 = complete control)” value did it give?
Its value is 0.

Same assay, conditions: Preemergence, 500 g ai/ha

How did the “Plant response rating (0 to 100 scale), Foxtail, Giant” value turn out when `CCn1cc(C(=NNc2ccccc2)c2ccccc2)c(-c2cc(Cl)cc(Cl)c2)n1` [Compound 36] was run?
Its value is 0.

Tested on: large (Lg) crabgrass (Digitaria sanguinalis)
Test: as above
Type: in vivo
Details: Postemergence, 125 g ai/ha
From the text: as §1

`CCn1cc(C(=NNc2ccccc2)c2ccccc2)c(-c2cc(Cl)cc(Cl)c2)n1` [Compound 36] was tested. Which “Plant response rating (0 to 100 scale), Crabgrass, Large” value did it give?
The value was 0.

Same assay, conditions: Postemergence, 500 g ai/ha

How did the “Plant response rating (0 to 100 scale), Crabgrass, Large” value turn out when `CCn1cc(C(=NNc2ccccc2)c2ccccc2)c(-c2cc(Cl)cc(Cl)c2)n1` [Compound 36] was run?
The value was 0.

Same assay, conditions: Preemergence, 125 g ai/ha

`CCn1cc(C(=NNc2ccccc2)c2ccccc2)c(-c2cc(Cl)cc(Cl)c2)n1` [Compound 36] was tested. Which “Crabgrass, Large plant response rating (0 = no effect, 100 = complete control)” value did it give?
Its value is 0.

Same assay, conditions: Preemergence, 500 g ai/ha

Which “Plant response rating (0 to 100 scale), Crabgrass, Large” value does the source give for `CCn1cc(C(=NNc2ccccc2)c2ccccc2)c(-c2cc(Cl)cc(Cl)c2)n1` [Compound 36] here?
The value was 0.

Tested on: morningglory (Ipomoea spp.)
Test: as above
Type: in vivo
Details: Postemergence, 125 g ai/ha
From the text: as §1

For `CCn1cc(C(=NNc2ccccc2)c2ccccc2)c(-c2cc(Cl)cc(Cl)c2)n1` [Compound 36], which “Plant response rating (0 to 100 scale), Morningglory” value is on record?
Its value is 0.

Same assay, conditions: Postemergence, 500 g ai/ha

For `CCn1cc(C(=NNc2ccccc2)c2ccccc2)c(-c2cc(Cl)cc(Cl)c2)n1` [Compound 36], which “Plant response rating (0 to 100 scale), Morningglory” value is on record?
Its value is 0.

Same assay, conditions: Preemergence, 125 g ai/ha

For `CCn1cc(C(=NNc2ccccc2)c2ccccc2)c(-c2cc(Cl)cc(Cl)c2)n1` [Compound 36], which “Morningglory plant response rating (0 = no effect, 100 = complete control)” value is on record?
Its value is 0.

Same assay, conditions: Preemergence, 500 g ai/ha

Which “Plant response rating (0 to 100 scale), Morningglory” value does the source give for `CCn1cc(C(=NNc2ccccc2)c2ccccc2)c(-c2cc(Cl)cc(Cl)c2)n1` [Compound 36] here?
Its value is 0.

Tested on: pigweed (Amaranthus retroflexus)
Test: as above
Type: in vivo
Details: Postemergence, 125 g ai/ha
From the text: as §1

Which “Plant response rating (0 to 100 scale), Pigweed” value does the source give for `CCn1cc(C(=NNc2ccccc2)c2ccccc2)c(-c2cc(Cl)cc(Cl)c2)n1` [Compound 36] here?
The value was 30.

Same assay, conditions: Postemergence, 500 g ai/ha

`CCn1cc(C(=NNc2ccccc2)c2ccccc2)c(-c2cc(Cl)cc(Cl)c2)n1` [Compound 36] was tested. Which “Plant response rating (0 to 100 scale), Pigweed” value did it give?
The value was 80.

Same assay, conditions: Preemergence, 125 g ai/ha

`CCn1cc(C(=NNc2ccccc2)c2ccccc2)c(-c2cc(Cl)cc(Cl)c2)n1` [Compound 36] was tested. Which “Pigweed plant response rating (0 = no effect, 100 = complete control)” value did it give?
Its value is 0.

Same assay, conditions: Preemergence, 500 g ai/ha

`CCn1cc(C(=NNc2ccccc2)c2ccccc2)c(-c2cc(Cl)cc(Cl)c2)n1` [Compound 36] was tested. Which “Plant response rating (0 to 100 scale), Pigweed” value did it give?
Its value is 70.

Tested on: velvetleaf (Abutilon theophrasti)
Test: as above
Type: in vivo
Details: Postemergence, 125 g ai/ha
From the text: as §1

`CCn1cc(C(=NNc2ccccc2)c2ccccc2)c(-c2cc(Cl)cc(Cl)c2)n1` [Compound 36] was tested. Which “Plant response rating (0 to 100 scale), Velvetleaf” value did it give?
The value was 70.

Same assay, conditions: Postemergence, 500 g ai/ha

How did the “Plant response rating (0 to 100 scale), Velvetleaf” value turn out when `CCn1cc(C(=NNc2ccccc2)c2ccccc2)c(-c2cc(Cl)cc(Cl)c2)n1` [Compound 36] was run?
The value was 90.

Same assay, conditions: Preemergence, 125 g ai/ha

Which “Velvetleaf plant response rating (0 = no effect, 100 = complete control)” value does the source give for `CCn1cc(C(=NNc2ccccc2)c2ccccc2)c(-c2cc(Cl)cc(Cl)c2)n1` [Compound 36] here?
The value was 20.

Same assay, conditions: Preemergence, 500 g ai/ha

Which “Plant response rating (0 to 100 scale), Velvetleaf” value does the source give for `CCn1cc(C(=NNc2ccccc2)c2ccccc2)c(-c2cc(Cl)cc(Cl)c2)n1` [Compound 36] here?
Its value is 20.

Tested on: wheat (Triticum aestivum)
Test: as above
Type: in vivo
Details: Postemergence, 125 g ai/ha
From the text: as §1

For `CCn1cc(C(=NNc2ccccc2)c2ccccc2)c(-c2cc(Cl)cc(Cl)c2)n1` [Compound 36], which “Plant response rating (0 to 100 scale), Wheat” value is on record?
The value was 0.

Same assay, conditions: Postemergence, 500 g ai/ha

Which “Plant response rating (0 to 100 scale), Wheat” value does the source give for `CCn1cc(C(=NNc2ccccc2)c2ccccc2)c(-c2cc(Cl)cc(Cl)c2)n1` [Compound 36] here?
Its value is 0.

Same assay, conditions: Preemergence, 125 g ai/ha

How did the “Wheat plant response rating (0 = no effect, 100 = complete control)” value turn out when `CCn1cc(C(=NNc2ccccc2)c2ccccc2)c(-c2cc(Cl)cc(Cl)c2)n1` [Compound 36] was run?
Its value is 0.

Same assay, conditions: Preemergence, 500 g ai/ha

How did the “Plant response rating (0 to 100 scale), Wheat” value turn out when `CCn1cc(C(=NNc2ccccc2)c2ccccc2)c(-c2cc(Cl)cc(Cl)c2)n1` [Compound 36] was run?
Its value is 0.
